The subject of test [1] is Tyrosinase (Agaricus bisporus). Briefly: Dose required for inhibitory activity against oxidation of L-DOPA by mushroom tyrosinase.
The target of test [2] is T1, Tyrosinase (Homo sapiens) (UniProt P14679).
T1 sequence (whole entry): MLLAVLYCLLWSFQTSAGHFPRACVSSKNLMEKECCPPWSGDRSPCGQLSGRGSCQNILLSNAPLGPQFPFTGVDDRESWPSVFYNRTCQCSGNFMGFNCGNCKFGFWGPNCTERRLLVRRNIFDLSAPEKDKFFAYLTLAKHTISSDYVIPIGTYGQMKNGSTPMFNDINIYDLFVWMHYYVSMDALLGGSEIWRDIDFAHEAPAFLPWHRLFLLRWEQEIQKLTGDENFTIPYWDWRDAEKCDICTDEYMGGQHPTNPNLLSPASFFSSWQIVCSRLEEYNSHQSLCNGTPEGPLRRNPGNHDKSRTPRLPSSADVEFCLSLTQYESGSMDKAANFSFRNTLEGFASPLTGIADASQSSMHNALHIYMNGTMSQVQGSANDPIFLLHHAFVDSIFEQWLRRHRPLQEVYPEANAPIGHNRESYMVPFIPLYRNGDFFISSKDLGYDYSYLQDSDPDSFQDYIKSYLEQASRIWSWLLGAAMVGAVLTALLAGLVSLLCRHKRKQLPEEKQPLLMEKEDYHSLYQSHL
In words: Percent inhibition of mushroom tyrosinase at concentration of 18 ug/ml.

Test [3] has as its target T1, Tyrosinase (Homo sapiens). Briefly: Percent inhibition of mushroom tyrosinase at concentration of 45 ug/ml.

In brackets after ≈: the same amount, converted by molar mass.

As a reminder, the inhibition is the relative decrease from the control value, in per cent. High values mean a strong effect, low ones a weak effect.

Take `O=C(/C=C/c1ccc(O)cc1)OC[C@@H]1O[C@H](Oc2cc(O)c3c(=O)c(O)c(-c4ccc(O)cc4)oc3c2)[C@@H](O)[C@H](O)[C@H]1O`: in test [1], the ID50 was found to be 0.39 µg/mL (≈ 0.656 µM).

For `COc1cc(-c2oc3cc(O[C@H]4O[C@@H](COC(=O)/C=C/c5ccc(O)cc5)[C@H](O)[C@@H](O)[C@@H]4O)cc(O)c3c(=O)c2O)ccc1O`, the ID50 in test [1] was 0.44 µg/mL (≈ 0.705 µM).

Regarding `O=c1c(O)c(-c2ccc(O)c(O)c2)oc2cc(O)cc(O)c12`, the inhibition in test [2] was 40%; in test [3], 80%.

These data come from ChEMBL document CHEMBL1127909, “Tyrosinase inhibitory flavonoids fromheterotheca inuloides and their structural functions” (Bioorg Med Chem Lett, 1994).
